From patent US8710064B2, “2-aryl-4-quinazolinones and their pharmaceutical compositions” (China Medical University, priority 2011, dated 2014) come the findings set out here.

Molecules are shown by their SMILES. Where two headings read alike, the source gives them in different places.

Data set [1] relates to M21, CH27, H460, Hep3B and HSC-3 cells. As to the kind of experiment: trypan blue exclusion assay, cancer cell panel (summary). In kind it is cell-based. The conditions noted are these: summary of Table 2. The procedure: (§1) Cell viability was also determined by trypan-blue exclusion assay. Cells were seeded in 6-well plates (2×10^4/well) for trypan blue exclusion assay, and incubated for 24 hours at 37° C. Culture medium containing test compound or DMSO (0.006%) was added to each well, and cells were incubated at 37° C. At indicated time points (0, 24, 48, 72 and 96 hr), cells were suspended with 0.05% trypsin-EDTA, and stained with trypan-blue dye (0.4%) (Sigma). The cell viability was evaluated by the percentage of death relative to the total cell, and cell growth curve was determined by number of live cells relative to the total number of cells.
(§2) The anti-proliferation effects of Compounds 17-31 on M21, CH27, H460, Hep3B and HSC-3 cells were evaluated by the trypan blue exclusion assay.

The test system of another data set is M21. Description: trypan blue exclusion assay, M21 cells. In kind it is cell-based. The conditions noted are these: Homo sapiens. The procedure:
M21 cell line (human malignant melanoma) was provided by Dr. Feng-Yao Tang (China Medical University, Taiwan). Cells were grown in monolayer culture in RPMI-1640 medium, Eagle's minimum essential medium or Dulbecco's modified Eagles medium (Invitrogen Corporation, Grand Island, N.Y., USA) containing 10% fetal bovine serum (FBS; HyClone, Logan, Utah, USA), 100 U/ml penicillin and 100 μg/ml streptomycin (Gibco BRL, Rockville, Md., USA).
as §1, §2

Data set [2] has as its system glioma cell lines C6, RT2, U87, U251, U373 and T98G. Description: MTS cell viability assay, glioma cell lines. In kind it is cell-based, rat and human. On the procedure: (§3) The human glioma cell lines U87, U251, T98G, U373, and rat glioma cell line RT2 provided by Dr. Michael Hsiao (Genomics Research Center, Academia Sinica, Taiwan) were cultured in Dulbecco's Modified Eagle medium (DMEM) (Caisson) supplemented with 10% fetal bovine serum (FBS) (Sigma-Aldrich), 2 mM L-glutamine (Caisson), 100 U/ml penicillin, and 100 μg/ml streptomycin (Caisson). The rat glioma C6 cell line provided by Dr. Shun-Fen Tzeng (National Cheng Kung University, Taiwan) was cultured in DMEM/F12 (Caisson) supplemented with 10% fetal bovine serum, 2 mM L-glutamine, 100 U/ml penicillin, and 100 μg/ml streptomycin. The human normal glia cell line SVGP12, kindly provided by Dr. Michael Hsiao, was cultured in Minimum Essential Medium (MEM) (Invitrogen) supplemented with 10% fetal bovine serum, 2 mM L-glutamine, 100 U/ml penicillin, and […]. Primary glia cells were prepared by surgery. […]
(§4) Cell proliferation was determined by MTS (tetrazolium compound, 3-(4,5-dimethylthiazol-2-yl)-5-(3-carboxymethoxyphenyl)-2-(4-sulfophenyl)-2H-tetrazolium) assay (Promega). […] The absorbance of soluble formazan was measured at 490 nm with microplate reader (Molecular device). The cell viability was determined by the percentage of the absorption relative to untreated control. […]
The effects of MJ-66 on other glioma cell lines were further examined. […] Cell viability was assessed by MTS assay (mean±SEM, n=3). […]

For a further data set, the system named is HSC-3. As to the kind of experiment: trypan blue exclusion assay, HSC-3 cells. Format: cell-based, human. The conditions noted are these: HSC-3 human squamous carcinoma; trypan blue exclusion assay. On the procedure: The HSC-3 (human oral squamous cell carcinoma) were cultured in 1:1 Dulbecco's Modified Eagle's Medium (DMEM) and Ham's Nutrient Mixture F-12, containing 10% FBS (HyClone, Logan, Utah, USA), 100 U/ml penicillin, 100 μg/ml streptomycin (Gibco BRL, Rockville, Md., USA) and 2 mM glutamine (Merck, Darmstadt, Germany).
as §1, §2

For data set [3], the system named is U87 human glioma cell lines. Description: MTS cell viability assay, U87 glioma cells. Format: cell-based. The conditions noted are these: 48 hours, mean±SEM, n=3. The procedure: as §3, with “surgery. Cerebral cortices without meninges were dissected from postnatal (P0-P2) Sprague-Dawley (SD, NCKU Laboratory Animal Center) rats and dissociated in 0.05% trypsin-EDTA (Biowest) at 37° C. for 10 min. Culture medium was added and pipetted for several times, and supernatant was removed after a centrifugation at 1,000 rpm for 5 minutes.” for “surgery.”
as §4
To investigate the effect of 2-aryl-4-quinazolinone in accordance with the present invention on cell proliferation, glioma cell lines were treated with MJ-66, MJ-68, or MJ-78. […] The cell viability of each group was analyzed by MTS assay (mean±SEM, n=3).

The subject of the next data set is H460. Description: trypan blue exclusion assay, H460 cells. The conditions noted are these: NCI-H460, H460 human non-small cell lung cancer. In kind it is cell-based. The procedure: Hep3B (human hepatocellular carcinoma) and H460 (lung non-small carcinoma) cells were grown in monolayer culture in Dulbecco's modified Eagle's medium (DMEM) (Life Technologies, Rockville, Md., USA) containing 5% fetal bovine serum (HyClone, Logan, Utah, USA), 100 U/ml penicillin and 100 μg/ml streptomycin (Gibco BRL, Rockville, Md., USA) and 2 mM glutamine (Merck, Darmstadt, Germany).
as §1, §2

Regarding `O=c1[nH]c(-c2cccc3ccccc23)nc2ccc(N3CCCC3)cc12` [Compound 23, 6-(Pyrrolidin-1-yl)-2-(naphthalen-1-yl)quinazolin-4-one], the “cytotoxic effects toward cancer cells” value in data set [1] is “exhibited cytotoxic effects”. The half-maximal inhibitory concentration (IC50) with M21 (M21, in vitro, read-out: IC50, growth of human malignant melanoma cells) was approximately 33 nM; with M21 (M21 skin cancer, trypan blue exclusion assay, read-out: IC50 M21), 33 nM; in data set [2] (Glioma cell, in vitro, read-out: IC50, growth of glioma cells) it was approximately 60 nM; with HSC-3 it was 41 nM; in data set [3] it was 54 ± 10 nM; with H460, 75 nM. In addition, in data set [2] (0.00625-1 μM, 24, 48 and 72 hr, MTS assay), the “survival rates of glioma cell lines” value is “decreased in a time- and concentration-dependent manner”.
